From patent publication US6100377A, “Constrained peptides” (The Trustees of the University of Pennsylvania, priority 1994, dated 2000)
Bridge positions count the residues as written; N and C are the ends. Ends that are not written are not given here. Peptide text beside a SMILES is read from it.

Experiments:
[1] = target: T1, F1-gp120 binding to CD4+ human cells (Human immunodeficiency virus type 1 group M subtype B, UniProt P04578); experiment: Inhibition of fluoresceinated gp120 binding to CD4+ cells (flow microfluorimetry); details: compound 1 mg
T1 construct: Recombinant gp-120 was obtained from Raymond Sweet at Smith Kline Beecham and directly fluoresceinated; purchased Raymond Sweet at Smith Kline Beecham (obtained, not a catalogue product); host or cells: CD4+ human cells (Jurkat CD4+)
Procedure: This assay uses fluoresceinated gp120 and monitors its ability to bind to CD4+.
Recombinant gp-120 was obtained from Raymond Sweet at Smith Kline Beecham and directly fluoresceinated. Flow microfluorimetry was performed using a FACScan. Chen, et al., (1992) Proc. Nat'l. Acad. Sci. U.S.A., 89:5872-5876; Weiner, et al., (1990) Cancer Detection and Prevention, 14:317-320; and Weiner, et al., (1990) Vaccines, 339-345, discloses the assay was done using the CD4 related synthetic compounds or, separately, monoclonal anti-CD4 antibody as described.

[2] = test system: CD4+ T cells; experiment: Blocking of T cell activation by tetanus toxoid (3H-TdR incorporation); assay type: cell-based; set-up: dose or concentration left out as unconfirmed; details: 10^4 T cells + tetanus toxoid, 48 hours
Procedure: 10^4 blood monocytes were pulsed with […] of tetanus toxoid for
hours. 10^4 CD4+ T cells were added with the compounds […] in
a final volume of […] of media. The cells were pulsed with […]
HTdR and assayed at 48 hours.

[3] = test system: ABA delayed type hypersensitivity; experiment: In vivo inflammation: delayed type hypersensitivity to azobenzenearsonate (ABA); set-up: species or system mouse; details: 100 μg total dose
Procedure: The effects of macrocyclics on in vivo inflammation were examined as follows. The effects of cyclic compounds disclosed in Table I on in vivo inflammatory response to Azobenzenearsonate was performed using treated groups of ABA primed normal Balb/c or Va3.1 transgenic mice with either 1) intravenously administered anti-CD4 monoclonal antibodies, 2) intravenously administered anti-class II antibodies, 3) systemically administered soluble forms of the most efficacious constrained macrocyclics 4) intravenously administered ABA coupled mononuclear cells, and 5) control antibodies and control macrocyclics. […]
The delayed type hypersensitivity assay is performed as follows. Five days after priming a mouse with hapten coupled cells, the hind left footpad is measured using an engineer's caliper (Fowler). […] Twenty four hours later, the degree of swelling is measured in the footpad. […]
For priming, mice (normal or transgenic with a T-cell receptor that recognizes ABA) are injected subcutaneously in each flank using a 23 g needle with 0.1 ml of ABA- or TNP-coupled spleen cells (3×10^7).Five days later, ear thickness and footpad thickness is measured with a caliper. […] Twenty four hours after challenge, the ears and footpads are measured and the animals sacrificed by cervical dislocation. […]

[4] = target: T2, sCD4 binding to DRb2 (Homo sapiens, UniProt P01911); experiment: CD4 receptor-DRb2 blocking: 125I-sCD4 binding to immobilized DRb2 peptide
T2 construct: made in house
Procedure: The peptidic fragment is first coupled to activated sepharose 4B (0.5 mg of peptide/ml of beads).
75 μg of the recombinant soluble CD4 was labelled with 2 mCi of Bolotn Hunter reagent (Dupont/New England Nuclear) in 100 mM sodium borate, pH 8.5, in a volume of 150 μl. The labelled CD4 was separated from the unconjugated reagent on a G-50 Sephadex column containing PBS/0.1% gelatin and stored at -70° C.
HPLC purified forms of the DRb2 peptide were prepared. The peptide ([…] in 0.1M ammonium bicarbonate, pH 7.8) was immobilized on Falcon microtiter plates by overnight exposure. After washing several times and blocking with 2% BSA in HBSS pH 7.6 for 2 hours we add […] of ^125 I labelled sCD4. After 1 hour at room temperature the wells are washed 5× and the radioactivity counted.

[5] = test system: responder CD4+ T cells + allogeneic cells; experiment: Blocking of the mixed lymphocyte response; assay type: cell-based, human; details: .1 mg printed in table line
Procedure: Responder purified CD4+ T cells were used in a mixed lymphocyte response against completely allogeneic human cells. The compounds were added at 10 μg/ml final concentration. The number of responder cells was 10^5 and the number of stimulators 4×10^5 cells per well.

[6] = test system: HIV-1MN; experiment: Syncytium assay, HIV; assay type: cell-based; details: for syncytia: none 100
Procedure: Chen, et al., (1992) Proc. Nat'l. Acad. Sci. U.S.A., 89:5872-5876; Weiner, et al. (1990) Cancer Detection and Prevention, 14:317-320, discloses Sup T1 cells are used as target cells because of their rapid and high degree of fusion when co-cultured with HIV-1 producing cell lines. Uninfected target cells were assayed by co-culture with HIV-infected cells (H9/IIIB.) Washed, HIV-infected cells are plated in 96-well plates (10^4 cells/well in RPMI 1640+10% FCS) and incubated for 30 min at 37° C. Target cells are then added at 5×10^5 /well and the number of syncytia is qualitatively determined after a 48-hour incubation period. CD4 forms to be tested are added at time 0 or 24 hours after the assay has been initiated. Graded doses are used, controls including random linear peptides are also added independently. sCD4 and antibodies to CD4 are used as positive controls.
Another neutralization assay which is used in the field is as follows. One hundred TCID50 of HIV-1/IIIB or HIV-1/MN cell-free virus is preincubated with serial dilutions of compounds for 1 hour at 37° C. Following incubation, the pretreated virus was then plated on 4×10^4 MT-2 target cells, for 1 hour at 37° C. The MT-2 cells were then washed 3 times and incubated at 37° C. with 5% CO2. Fusion was evaluated 3 days later quantitatively by counting the number of syncytia per well in triplicate under a phase contrast microscope. The neutralization value (the ability of a compound to inhibit HIV infection 0 Vn/Vo) is calculated by dividing the mean number of syncytia per well following treatment with specific antiserum by the mean number of syncytia per well without antiserum (see: Montefiori, et al., (1988) J. Clin. Microbiol., 26:231-235).

CC(C)C[C@@H]1NC(=O)[C@@H](NC(=O)[C@@H](N)Cc2ccccc2)CSSC[C@@H](C(=O)N[C@@H](Cc2ccc(O)cc2)C(=O)O)NC(=O)[C@H](CC(C)C)NC(=O)[C@H](C(C)C)NC(=O)[C@H](CCC(N)=O)NC(=O)CNC(=O)[C@H](CO)NC(=O)[C@H](CC(=O)O)NC(=O)[C@H](CO)NC1=O [SEQ ID NO:9, F, C, L, S, D, S, G, Q, V, L, C, Y] (H-FCLSDSGQVLCY-OH; disulfide 2-11)
% Inhibition [1]: 8%
% response [2]: 100%

CC(C)[C@@H]1NC(=O)[C@H](CCC(=O)O)NC(=O)[C@@H](NC(=O)[C@@H](N)Cc2ccccc2)CSSC[C@@H](C(=O)N[C@@H](Cc2ccc(O)cc2)C(=O)O)NC(=O)[C@H](CCC(=O)O)NC(=O)[C@H](CCCCN)NC(=O)[C@H](CCC(N)=O)NC(=O)[C@H](CC(=O)O)NC(=O)[C@H](CCC(=O)O)NC1=O [SEQ ID NO:8, F, C, E, V, E, D, Q, K, E, C, Y] (H-FCEVEDQKECY-OH; disulfide 2-10)
% Inhibition [1]: 83%

C[C@@H](O)[C@@H]1NC(=O)[C@@H](NC(=O)[C@@H](N)Cc2ccccc2)CSSC[C@@H](C(=O)N[C@@H](Cc2ccc(O)cc2)C(=O)O)NC(=O)[C@H](CCCCN)NC(=O)[C@H](CO)NC(=O)[C@@H]2CCCN2C(=O)CNC(=O)[C@H](CCCCN)NC1=O [SEQ ID NO:3, F, C, T, K, G, P, S, K, C, Y] (H-FCTKGPSKCY-OH; disulfide 2-9)
% Inhibition [1]: 83%

CDR2R: macrocyclic compound modeled to bind to the reovirus receptor on activated T cells; probably SEQ ID NO:10 (FKTNKCIYSGSTCQF; disulfide 6-13 (inferred))
reducing in vivo delayed type hypersensitivity to ABA [3]: efficacious

CC(C)C[C@@H]1NC(=O)[C@H](Cc2ccccc2)NC(=O)[C@H](CO)NC(=O)CNC(=O)[C@H](CCC(N)=O)NC(=O)[C@H](CC(N)=O)NC(=O)[C@@H](NC(=O)[C@@H](N)Cc2ccc(O)cc2)CSSC[C@@H](C(=O)N[C@@H](Cc2ccc(O)cc2)C(=O)O)NC1=O [SEQ ID NO:1, Y, C, N, Q, G, S, F, L, C, Y] (H-YCNQGSFLCY-OH; disulfide 2-9)
% Inhibition [1]: 33%
% response [2]: 77%

F, C, Y, I, C, E, V, E, D, Q, C, Y (FCYICEVEDQCY; also: cyclized, ring type and places not given here) [SEQ ID NO:7, CD4, 84-91 cyclized, CDR3-like, Human]
% inhibition of sCD4 binding ([4]; .1 mg compound, first experiment): 48%
Bound CD4 (cpm) ([4]; .1 mg compound, first experiment (none 3600, no DRb2 1100)): 2400 cpm
% inhibition of sCD4 binding ([4]; .5 mg compound, first experiment): 88%
Bound CD4 (cpm) ([4]; .5 mg compound, first experiment (none 3600, no DRb2 1100)): 1400 cpm
% inhibition of sCD4 binding ([4]; Experiment 2, amount not given): 100%
Bound CD4 (cpm) ([4]; Experiment 2, amount not printed (none 2000, no DRb2 1100)): 800 cpm
% Inhibition [1]: 75%
Mean Channel Fluorescence ([1]; none 21, background 9): 12
% response [2]: 55%
3H-TdR incorporation (cpm) ([2]; none 45,090 cpm): 25,000 cpm
% inhibition of MLR [5]: 48%
(cpm) ([5]; control 85,000): 55,000 cpm
% protection from syncytia ([6]; 6.125 μg): 48%
syncytia ([6]; 6.125 μg): 35
% protection from syncytia ([6]; 12.5 μg): 88%
syncytia ([6]; 12.5 μg): 15
